Reference: PubChem BioAssay AID1259407 (Chemical Carcinogenesis Research Information System (CCRIS), 2018)
Active and inactive are the calls of the source. The rule behind the calls is not given here.

Tested on: CCRIS mutagenicity, Ames/micronucleus/aberration tests
Experiment: CCRIS mutagenicity studies
Conditions: Test System: AMES SALMONELLA TYPHIMURIUM, Method: PREINCUBATION

## Nc1ncnc2c1ncn2Cc1ccc([N+](=O)[O-])cc1
Strain/Indicator: TA98(1,8-DNP), Metabolic Activation: NONE
  mutagenic call: inactive; negative
Strain/Indicator: TA98(1,8-DNP), Metabolic Activation: RAT, LIVER, S-9, PCB
  mutagenic call: inactive; negative
Strain/Indicator: TA98(NR), Metabolic Activation: NONE
  mutagenic call: inactive; negative
Strain/Indicator: TA98(NR), Metabolic Activation: RAT, LIVER, S-9, PCB
  mutagenic call: inactive; negative
Strain/Indicator: TA98, Metabolic Activation: NONE
  mutagenic call: inactive; negative
Strain/Indicator: TA98, Metabolic Activation: RAT, LIVER, S-9, PCB
  mutagenic call: inactive; negative
Strain/Indicator: TA100(1,8-DNP), Metabolic Activation: NONE
  mutagenic call: inactive; negative
Strain/Indicator: TA100(1,8-DNP), Metabolic Activation: RAT, LIVER, S-9, PCB
  mutagenic call: inactive; negative
Strain/Indicator: TA100(NR), Metabolic Activation: NONE
  mutagenic call: inactive; negative
Strain/Indicator: TA100(NR), Metabolic Activation: RAT, LIVER, S-9, PCB
  mutagenic call: inactive; negative
Strain/Indicator: TA100, Metabolic Activation: NONE
  mutagenic call: inactive; negative
Strain/Indicator: TA100, Metabolic Activation: RAT, LIVER, S-9, PCB
  mutagenic call: inactive; negative
Strain/Indicator: YG1020, Metabolic Activation: NONE
  mutagenic call: inactive; negative
Strain/Indicator: YG1020, Metabolic Activation: RAT, LIVER, S-9, PCB
  mutagenic call: inactive; negative
Strain/Indicator: YG1021, Metabolic Activation: NONE
  mutagenic call: active; positive
Strain/Indicator: YG1024, Metabolic Activation: NONE
  mutagenic call: inactive; negative
Strain/Indicator: YG1024, Metabolic Activation: RAT, LIVER, S-9, PCB
  mutagenic call: inactive; negative
Strain/Indicator: YG1025, Metabolic Activation: NONE
  mutagenic call: inactive; negative
Strain/Indicator: YG1025, Metabolic Activation: RAT, LIVER, S-9, PCB
  mutagenic call: inactive; negative
Strain/Indicator: YG1026, Metabolic Activation: NONE
  mutagenic call: inactive; negative
Strain/Indicator: YG1026, Metabolic Activation: RAT, LIVER, S-9, PCB
  mutagenic call: inactive; negative
Strain/Indicator: YG1029, Metabolic Activation: NONE
  mutagenic call: inactive; negative
Strain/Indicator: YG1029, Metabolic Activation: RAT, LIVER, S-9, PCB
  mutagenic call: inactive; negative
